Experimental data reported in US4288590A, “7 -[Dα-(4-Hydroxy-1,5-naphthyridine-3-carboxamido)-α-arylacetam ido]-3-(N,N-dimethyl-aminomethylpyridinium) methyl-3-cephem-4-carboxylates” (Bristol-Myers Company, priority 1980, dated 1981).
Counter-ions that a name gives are not always drawn.

Key:
P. aeruginosa A21509 = experiment: In vivo efficacy, experimental infection in mice; details: Pseudomonas aeruginosa, A21509, in Mus musculus, im, 120 h, read-out: PD50 (median protective dose)
Description: (§3) The mice were treated with test compound by im route immediately after the bacterial challenge.

P. morganii A15153 = experiment: In vivo efficacy, experimental infection in mice; details: Morganella morganii, A15153, in Mus musculus, im, 120 h, read-out: PD50 (median protective dose)
Description: as §3

[1] = Additional mouse blood levels after intramuscular administration (Table 4); format: in vivo; details: mice, im, read-out: Blood level
Description: (§1) […] The blood samples were collected from the orbital sinuses into heparinized capillary tubes at 15, 30, 60 and 120 minutes after administration. The antibiotic concentration was determined by the paper disc-agar diffusion method using E. coli NIHJ or S. lutea PCI 1001 as the assay organism.

P. aeruginosa A9843 = experiment: In vivo efficacy, experimental infection in mice; details: Pseudomonas aeruginosa, A9843, in Mus musculus, im, 120 h, read-out: PD50 (median protective dose)
Description: as §3

[2] = Mouse blood levels after intramuscular administration (Table 3); format: in vivo; details: im, read-out: Blood level; for concentration at 0.25 h: 15'; for concentration at 0.5 h: 30'; for concentration at 1 h: 60'; for concentration at 2 h: 120'
Description: as §1

E. coli Juhl A15119 = experiment: In vivo efficacy, experimental infection in mice; details: Escherichia coli, JUHLA15119, in Mus musculus, im, 120 h, read-out: PD50 (median protective dose)
Description: as §3

S. aureus Smith A9537 = experiment: In vivo efficacy, experimental infection in mice; details: Staphylococcus aureus, SMITHA9537, in Mus musculus, im, 120 h, read-out: PD50 (median protective dose)
Description: as §3

S. aureus BX-1633 A9606 = experiment: In vivo efficacy, experimental infection in mice; details: Staphylococcus aureus, BX1633A9606, in Mus musculus, im, 120 h, read-out: PD50 (median protective dose)
Description: as §3

P. mirabilis A9900 = experiment: In vivo efficacy, experimental infection in mice; details: Proteus mirabilis, A9900, in Mus musculus, im, 120 h, read-out: PD50 (median protective dose)
Description: as §3

P. mirabilis (Gn-Ia) = experiment: In vitro activity, MIC of strain group (Table 2); format: cell-based; details: Proteus mirabilis, 6 strains, read-out: Geometric mean of MIC
Description: (§2) Minimum inhibitory concentrations (MIC) of BB-S 651, BB-S 669 and BB-S 676 were determined by serial two-fold agar dilution method using Steers' apparatus on Mueller-Hinton agar plate against 15 test organisms for primary screening as shown in Table 1.

Indole(+) Proteus sp. = experiment: In vitro activity, MIC of strain group (Table 2); format: cell-based; details: Gn-II Indole(+) Proteus sp., 8 strains; read-out: Geometric mean of MIC
Description: as §2

S. aureus (Gp-Ia) = experiment: In vitro activity, MIC of strain group (Table 2); format: cell-based; details: Staphylococcus aureus, 12 strains, read-out: Geometric mean of MIC
Description: as §2

H. influenzae = experiment: In vitro activity, MIC of strain group (Table 2); format: cell-based; details: Haemophilus influenzae; Gn-IV H. influenzae, 4 strains; read-out: Geometric mean of MIC
Description: as §2

Neisseria sp. = experiment: In vitro activity, MIC of strain group (Table 2); format: cell-based; details: Gn-IV Neisseria sp., 6 strains; read-out: Geometric mean of MIC
Description: as §2

P. aeruginosa = experiment: In vitro activity, MIC of strain group (Table 2); format: cell-based; details: Pseudomonas aeruginosa; Gn-III P. aeruginosa, 32 strains; read-out: Geometric mean of MIC
Description: as §2

P. mirabilis (Gn-Ib) = experiment: In vitro activity, MIC of strain group (Table 2); format: cell-based; details: Proteus mirabilis, 2 strains, read-out: Geometric mean of MIC
Description: as §2

E. coli (Gn-Ia) = experiment: In vitro activity, MIC of strain group (Table 2); format: cell-based; details: Escherichia coli, 7 strains, read-out: Geometric mean of MIC
Description: as §2

P. putida = experiment: In vitro activity, MIC of strain group (Table 2); format: cell-based; details: Pseudomonas putida; Gn-III P. putida, 5 strains; read-out: Geometric mean of MIC
Description: as §2

S. pneumoniae = experiment: In vitro activity, MIC of strain group (Table 2); format: cell-based; details: Streptococcus pneumoniae; Gp-II S. pneumoniae, 9 strains; read-out: Geometric mean of MIC
Description: as §2

E. coli (Gn-Ib) = experiment: In vitro activity, MIC of strain group (Table 2); format: cell-based; details: Escherichia coli, 13 strains, read-out: Geometric mean of MIC
Description: as §2

S. aureus (Gp-Ib) = experiment: In vitro activity, MIC of strain group (Table 2); format: cell-based; details: Staphylococcus aureus, 16 strains, read-out: Geometric mean of MIC
Description: as §2

P. maltophilia = experiment: In vitro activity, MIC of strain group (Table 2); format: cell-based; details: Stenotrophomonas maltophilia; Gn-III P. maltophilia, 13 strains; read-out: Geometric mean of MIC
Description: as §2

K. pneumoniae (Gn-Ib) = experiment: In vitro activity, MIC of strain group (Table 2); format: cell-based; details: Klebsiella pneumoniae, 5 strains, read-out: Geometric mean of MIC
Description: as §2

P. stuartii = experiment: In vitro activity, MIC of strain group (Table 2); format: cell-based; details: Providencia stuartii; Gn-II P. stuartii, 5 strains; read-out: Geometric mean of MIC
Description: as §2

P. cepacia = experiment: In vitro activity, MIC of strain group (Table 2); format: cell-based; details: Burkholderia cepacia; Gn-III P. cepacia, 4 strains; read-out: Geometric mean of MIC
Description: as §2

S. marcescens = experiment: In vitro activity, MIC of strain group (Table 2); format: cell-based; details: Serratia marcescens; Gn-II S. marcescens, 10 strains; read-out: Geometric mean of MIC
Description: as §2

CN(C)Cc1ccc[n+](CC2=C(C(=O)[O-])N3C(=O)C(NC(=O)[C@H](NC(=O)c4cnc5cccnc5c4O)c4ccc(O)cc4)C3SC2)c1 (stereo partly drawn) [BB-S 651, 7-[D-α-(4-Hydroxy-1,5-naphthyridine-3-carboxamido)-α-(4-hydroxyphenyl)acetamido]-3-(3-N,N-dimethylaminomethylpyridinium)methyl-3-cephem-4-carboxylate Hydrochloride]
ED50 (P. aeruginosa A21509): 3.2 mg/kg
ED50 (P. morganii A15153): > 100 mg/kg
concentration at 0.5 h ([1]; 10 mg/kg, dose 10, 1/2 hour): 3300 ng/mL
concentration at 0.25 h ([1]; 10 mg/kg, dose 10, 1/4 hour): 4300 ng/mL
concentration at 1 h ([1]; 10 mg/kg, dose 10, 1 hour): 2500 ng/mL
concentration at 2 h ([1]; 10 mg/kg, dose 10, 2 hour): < 800 ng/mL
concentration at 0.5 h ([1]; 20 mg/kg, dose 20, 1/2 hour): 7400 ng/mL
concentration at 0.25 h ([1]; 20 mg/kg, dose 20, 1/4 hour): 10000 ng/mL
concentration at 1 h ([1]; 20 mg/kg, dose 20, 1 hour): 5800 ng/mL
concentration at 2 h ([1]; 20 mg/kg, dose 20, 2 hour): < 800 ng/mL
concentration at 0.5 h ([1]; 40 mg/kg, 1/2 hour): 14000 ng/mL
concentration at 0.25 h ([1]; 40 mg/kg, 1/4 hour): 20000 ng/mL
concentration at 1 h ([1]; 40 mg/kg, 1 hour): 10000 ng/mL
concentration at 2 h ([1]; 40 mg/kg, 2 hour): 3000 ng/mL
ED50 (P. aeruginosa A9843): 1.9 mg/kg
concentration at 0.25 h ([2]; 10 mg/kg): 5000 ng/mL
concentration at 0.5 h ([2]; 10 mg/kg): 3000 ng/mL
concentration at 1 h ([2]; 10 mg/kg): < 400 ng/mL
concentration at 2 h ([2]; 10 mg/kg): < 400 ng/mL
concentration at 0.25 h ([2]; 20 mg/kg): 11000 ng/mL
concentration at 0.5 h ([2]; 20 mg/kg): 9000 ng/mL
concentration at 1 h ([2]; 20 mg/kg): 5000 ng/mL
concentration at 2 h ([2]; 20 mg/kg): < 400 ng/mL
concentration at 0.25 h ([2]; 40 mg/kg): 25000 ng/mL
concentration at 0.5 h ([2]; 40 mg/kg): 18000 ng/mL
concentration at 1 h ([2]; 40 mg/kg): 11000 ng/mL
concentration at 2 h ([2]; 40 mg/kg): 3000 ng/mL
ED50 (E. coli Juhl A15119): 1.9 mg/kg
ED50 (S. aureus Smith A9537): 1.1 mg/kg
ED50 (S. aureus BX-1633 A9606): 6.3 mg/kg
ED50 (P. mirabilis A9900): > 25 mg/kg
MIC (P. mirabilis (Gn-Ia)): > 100 µg/mL
MIC (Indole(+) Proteus sp.): > 100 µg/mL
MIC (S. aureus (Gp-Ia)): 3.7 µg/mL
MIC (H. influenzae): 0.8 µg/mL
MIC (Neisseria sp.): 1.6 µg/mL
MIC (P. aeruginosa): 1.7 µg/mL
MIC (P. mirabilis (Gn-Ib)): > 100 µg/mL
MIC (E. coli (Gn-Ia)): 2.6 µg/mL
MIC (P. putida): 22 µg/mL
MIC (S. pneumoniae): 0.8 µg/mL
MIC (E. coli (Gn-Ib)): 29 µg/mL
MIC (S. aureus (Gp-Ib)): 42 µg/mL
MIC (P. maltophilia): 14 µg/mL
MIC (K. pneumoniae (Gn-Ib)): > 100 µg/mL
MIC (P. stuartii): 1.6 µg/mL
MIC (P. cepacia): 59 µg/mL
MIC (S. marcescens): > 100 µg/mL

CCN1CCN(C(=O)N[C@@H](C(=O)N[C@@H]2C(=O)N3C(C(=O)O)=C(CSc4nnnn4C)CS[C@H]23)c2ccc(O)cc2)C(=O)C1=O [Cefoperazone, reference compound]
ED50 (P. aeruginosa A21509): 30 mg/kg
ED50 (P. morganii A15153): 6.3 mg/kg
concentration at 0.5 h ([1]; 10 mg/kg, dose 10, 1/2 hour): 3500 ng/mL
concentration at 0.25 h ([1]; 10 mg/kg, dose 10, 1/4 hour): 5000 ng/mL
concentration at 1 h ([1]; 10 mg/kg, dose 10, 1 hour): 1200 ng/mL
concentration at 2 h ([1]; 10 mg/kg, dose 10, 2 hour): < 800 ng/mL
concentration at 0.5 h ([1]; 20 mg/kg, dose 20, 1/2 hour): 6300 ng/mL
concentration at 0.25 h ([1]; 20 mg/kg, dose 20, 1/4 hour): 10500 ng/mL
concentration at 1 h ([1]; 20 mg/kg, dose 20, 1 hour): 2500 ng/mL
concentration at 2 h ([1]; 20 mg/kg, dose 20, 2 hour): < 800 ng/mL
concentration at 0.5 h ([1]; 40 mg/kg, 1/2 hour): 12000 ng/mL
concentration at 0.25 h ([1]; 40 mg/kg, 1/4 hour): 18000 ng/mL
concentration at 1 h ([1]; 40 mg/kg, 1 hour): 5400 ng/mL
concentration at 2 h ([1]; 40 mg/kg, 2 hour): 1200 ng/mL
ED50 (P. aeruginosa A9843): 20 mg/kg
concentration at 0.25 h ([2]; 10 mg/kg): 3500 ng/mL
concentration at 0.5 h ([2]; 10 mg/kg): 1800 ng/mL
concentration at 1 h ([2]; 10 mg/kg): < 400 ng/mL
concentration at 2 h ([2]; 10 mg/kg): < 400 ng/mL
concentration at 0.25 h ([2]; 20 mg/kg): 9000 ng/mL
concentration at 0.5 h ([2]; 20 mg/kg): 5500 ng/mL
concentration at 1 h ([2]; 20 mg/kg): 1300 ng/mL
concentration at 2 h ([2]; 20 mg/kg): < 400 ng/mL
concentration at 0.25 h ([2]; 40 mg/kg): 19000 ng/mL
concentration at 0.5 h ([2]; 40 mg/kg): 14000 ng/mL
concentration at 1 h ([2]; 40 mg/kg): 2500 ng/mL
concentration at 2 h ([2]; 40 mg/kg): < 400 ng/mL
ED50 (E. coli Juhl A15119): 1.1 mg/kg
ED50 (S. aureus Smith A9537): 2.4 mg/kg
ED50 (S. aureus BX-1633 A9606): 1.6 mg/kg
ED50 (P. mirabilis A9900): 6.3 mg/kg
MIC (P. mirabilis (Gn-Ia)): 0.8 µg/mL
MIC (Indole(+) Proteus sp.): 3.5 µg/mL
MIC (S. aureus (Gp-Ia)): 1.6 µg/mL
MIC (H. influenzae): 0.8 µg/mL
MIC (Neisseria sp.): 0.8 µg/mL
MIC (P. aeruginosa): 11 µg/mL
MIC (P. mirabilis (Gn-Ib)): 12.5 µg/mL
MIC (E. coli (Gn-Ia)): 0.2 µg/mL
MIC (P. putida): > 100 µg/mL
MIC (S. pneumoniae): 0.8 µg/mL
MIC (E. coli (Gn-Ib)): 3.7 µg/mL
MIC (S. aureus (Gp-Ib)): 17 µg/mL
MIC (P. maltophilia): 47 µg/mL
MIC (K. pneumoniae (Gn-Ib)): 100 µg/mL
MIC (P. stuartii): 0.8 µg/mL
MIC (P. cepacia): > 100 µg/mL
MIC (S. marcescens): 47 µg/mL
